Source: US5847148A, “Thiadiazole derivatives useful for the treatment of diseases related to connective tissue degradation” (Pharmacia & Upjohn Company, priority 1997, dated 1998)

molecular target: Stromelysin (Homo sapiens, UniProt P08254); experiment: MMP (stromelysin) inhibition, particle concentration fluorescence assay; format: biochemical; conditions: in vitro; fluorescein/biotin substrate; MMP buffer pH 7.5; room temperature; 15 minutes preincubation, 1-3 hours; read-out: Stromelysin Ki (MMP Inhibition Constants)
Sequence (P08254 100-477): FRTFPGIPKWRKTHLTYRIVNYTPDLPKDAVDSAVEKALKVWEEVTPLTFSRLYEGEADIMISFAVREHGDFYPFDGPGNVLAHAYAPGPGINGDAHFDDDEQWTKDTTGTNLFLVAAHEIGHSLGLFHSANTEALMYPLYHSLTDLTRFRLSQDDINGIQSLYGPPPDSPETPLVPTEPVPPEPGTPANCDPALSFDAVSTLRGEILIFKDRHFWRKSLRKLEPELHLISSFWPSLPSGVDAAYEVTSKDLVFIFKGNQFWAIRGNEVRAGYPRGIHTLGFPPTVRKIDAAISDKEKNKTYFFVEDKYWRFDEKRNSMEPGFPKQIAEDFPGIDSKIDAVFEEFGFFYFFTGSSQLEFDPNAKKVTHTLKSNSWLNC
Protocol: Inhibitory activity is evaluated in one or more of the MMP enzymes (stromelysin, gelatinase, and collagenase) in vitro using particle concentration fluorescence assay. An inhibitor binds to MMP enzymes which prevents the degradation of a substrate by stromelysin, gelatinase, or collagenase. The substrate has attached to it a fluorescein and a biotin moiety. The intact substrate then binds to an avidin-coated particle via the biotin moiety. Once the particle is washed and dried, a fluorescent signal is generated since the fluorescent group is attached to the particle. Without an inhibitor present, the substrate is degraded by MMP enzymes and the fluorescein group is removed, therefore, no fluorescent signal can be detected. Testing compounds are dissolved in DMSO to the desired concentration, then the solutions are diluted to 1:5 with MMP buffer (50 mM Tris-HCl, pH 7.5; 150 mM NaCl; 0.02% NaN3). Serial two-fold dilutions of each compound are prepared. A concentrated, activated enzyme solution is transferred into each plate of the testing compounds, and the mixture is incubated at room temperature for 15 minutes. […] At this point, the substrate mixture is mixed with 0.1% avidin-coated polystyrene particles. After 15 minutes, the fluorescence values are measured following filtration and washing of the beads. Ki values are then calculated.

Ki [nM]	Structure (SMILES)
760	CNC(=O)[C@@H](NC(=O)Nc1n[nH]c(=S)s1)[C@@H](C)OCc1ccccc1 [Example 66, 2-[[[(4,5-Dihydro-5-thioxo-1,3,4-thiadiazol-2-yl)amino]carbonyl]amino]-N-methyl-3-(phenylmethoxy)-(2S)-butanamide]
670	CNC(=O)[C@@H](NC(=O)Nc1n[nH]c(=S)s1)[C@@H](C)OC(C)(C)C [Example 75, 2-[[[(4,5-Dihydro-5-thioxo-1,3,4-thiadiazol-2-yl)amino]carbonyl]amino]-3-(1,1-dimethylethoxy)-N-methyl-(S)-butanamide]

Structure (SMILES)	Ki [nM]
COC(=O)[C@H](COC(C)(C)C)NC(=O)Nc1n[nH]c(=S)s1 [Example 67, N-[[(4,5-Dihydro-5-thioxo-1,3,4-thiadiazol-2-yl)amino]carbonyl]-O-(1,1-dimethylethoxy)-L-serine methyl ester]	6700
